Test results taken from ChEMBL document CHEMBL1955725, “Structure-guided lead optimization of triazolopyrimidine-ring substituents identifies potent Plasmodium falciparum dihydroorotate dehydrogenase inhibitors with clinical candidate potential” (J Med Chem, 2011).
In brackets after ≈: the same amount, converted by molar mass.

Tests used:
Plasmodium falciparum [1] = test: Antimalarial activity against Plasmodium falciparum 3D7 0087/N9 infected in human RBC engrafted NOD-SCID IL-2Rgamma-null mouse assessed as reduction in parasitemia administered orally 3 days post infection qd for 4 days measured 24 hrs after final dose by FACS analysis; assay type: functional; settings: 3D7 0087/N9, po
Mus musculus [2] = test: AUC (0 to 10 hrs) in human RBC engrafted NOD-SCID IL-2Rgamma-null mouse at 10 mg/kg, po; assay type: ADME, organism-based, Plasma; design: time < 10 hr, dose 10 mg/kg, route oral; settings: in vivo
Mus musculus [3] = test: AUC (0 to 10 hrs) in human RBC engrafted NOD-SCID IL-2Rgamma-null mouse infected with Plasmodium falciparum 3D7 0087/N9 at 10 mg/kg, po; assay type: ADME, organism-based, Plasma; design: time < 10 hr, dose 10 mg/kg, route oral; settings: in vivo
[4] = Cmax in human RBC engrafted NOD-SCID IL-2Rgamma-null mouse at 10 mg/kg, po; assay type: ADME, organism-based; design: dose 10 mg/kg, route oral; settings: in vivo
[5] = Cmax in human RBC engrafted NOD-SCID IL-2Rgamma-null mouse infected with Plasmodium falciparum 3D7 0087/N9 at 10 mg/kg, po; assay type: ADME, organism-based; design: dose 10 mg/kg, route oral; settings: in vivo
in vivo [6] = settings: NOD-SCID IL-2Rgamma-null, mouse, po, 10 mg/kg
in vivo [7] = settings: NOD-SCID IL-2Rgamma-null, mouse, po, 10 mg/kg; remark: listed apart in the source
Plasma = test: Plasma protein binding in human by chromatographic method; assay type: ADME, cell-free
Liver microsomes = test: Intrinsic clearance in human liver microsomes; assay type: ADME, Microsome
Liver = test: Intrinsic clearance in mouse liver microsomes; assay type: ADME, Microsome
[8] = Inhibition of Plasmodium berghei C-terminal hexa-His tagged DHODH expressed in Escherichia coli by DCIP reduction assay
Plasmodium falciparum [9] = test: Antimalarial activity against Plasmodium falciparum 3D7 by [3H]hypoxanthine incorporation assay in presence of human serum; assay type: functional, organism-based
[10] = Lipophilicity, log D of the compound at pH 7.4; assay type: physicochemical; settings: buffer
[11] = Aqueous solubility of the compound at pH 6.5; assay type: physicochemical
[12] = target: T1, Dihydroorotate dehydrogenase (Plasmodium falciparum, UniProt Q54A96)
T1 sequence (Q54A96 whole entry): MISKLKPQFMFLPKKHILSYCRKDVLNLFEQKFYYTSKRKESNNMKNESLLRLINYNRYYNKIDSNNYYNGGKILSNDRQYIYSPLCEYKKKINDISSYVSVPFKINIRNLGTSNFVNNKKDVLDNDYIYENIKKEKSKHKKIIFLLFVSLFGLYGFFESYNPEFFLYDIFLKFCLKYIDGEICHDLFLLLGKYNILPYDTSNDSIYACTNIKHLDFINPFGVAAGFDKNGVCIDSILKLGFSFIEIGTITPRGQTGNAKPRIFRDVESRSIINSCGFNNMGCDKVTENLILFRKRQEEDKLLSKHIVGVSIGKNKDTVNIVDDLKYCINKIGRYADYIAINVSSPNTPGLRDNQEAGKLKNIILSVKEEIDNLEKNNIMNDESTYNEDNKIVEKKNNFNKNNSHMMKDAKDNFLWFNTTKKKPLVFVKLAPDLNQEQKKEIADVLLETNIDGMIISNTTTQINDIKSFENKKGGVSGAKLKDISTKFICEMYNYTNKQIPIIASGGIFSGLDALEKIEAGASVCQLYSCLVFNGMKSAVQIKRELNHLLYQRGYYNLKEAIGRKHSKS
Description: Inhibition of Plasmodium falciparum C-terminal hexa-His tagged DHODH expressed in Escherichia coli by DCIP reduction assay

[13] = target: Dihydroorotate dehydrogenase (quinone), mitochondrial (Homo sapiens, UniProt Q02127)
Dihydroorotate dehydrogenase (quinone), mitochondrial, sequence (Q02127 whole entry): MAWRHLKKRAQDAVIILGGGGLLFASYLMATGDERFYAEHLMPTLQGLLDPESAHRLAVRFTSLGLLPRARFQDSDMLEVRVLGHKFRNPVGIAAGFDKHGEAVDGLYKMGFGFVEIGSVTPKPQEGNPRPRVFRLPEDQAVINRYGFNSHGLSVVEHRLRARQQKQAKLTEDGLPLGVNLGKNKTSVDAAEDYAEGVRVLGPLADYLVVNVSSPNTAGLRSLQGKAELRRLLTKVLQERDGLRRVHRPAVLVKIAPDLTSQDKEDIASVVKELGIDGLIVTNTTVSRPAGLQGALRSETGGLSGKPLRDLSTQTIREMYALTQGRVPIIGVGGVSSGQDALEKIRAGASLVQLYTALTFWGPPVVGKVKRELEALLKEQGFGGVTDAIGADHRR
Description: Inhibition of human C-terminal hexa-His tagged DHODH expressed in Escherichia coli by DCIP reduction assay

[14] = Terminal elimination half life in Swiss outbred mouse at 10 mg/kg, po; assay type: ADME, organism-based; design: dose 10 mg/kg, route oral; settings: in vivo, read-out: beta t1/2 (converted)
[15] = Cmax in Swiss outbred mouse at 10 mg/kg, po; assay type: ADME, organism-based; design: dose 10 mg/kg, route oral; settings: in vivo
[16] = AUC (0 to infinity) in Swiss outbred mouse plasma at 10 mg/kg, po; assay type: ADME, organism-based; design: time infinity, dose 10 mg/kg, route oral
Mus musculus [17] = test: Time plasma concentration remained above 1 uM in Swiss outbred mouse plasma at 10 mg/kg, po; assay type: ADME, organism-based; design: dose 10 mg/kg, route oral; settings: in vivo
in vivo [18] = settings: Swiss outbred, mouse, po, 10 mg/kg
[19] = Terminal elimination half life in Swiss outbred mouse at 20 mg/kg, po; assay type: ADME, organism-based; design: dose 20 mg/kg, route oral; settings: in vivo, read-out: beta t1/2 (converted)
[20] = Cmax in Swiss outbred mouse at 20 mg/kg, po; assay type: ADME, organism-based; design: dose 20 mg/kg, route oral; settings: in vivo
Mus musculus [21] = test: Time plasma concentration remained above 1 uM in Swiss outbred mouse plasma at 20 mg/kg, po; assay type: ADME, organism-based; design: dose 20 mg/kg, route oral; settings: in vivo
[22] = AUC (0 to infinity) in Swiss outbred mouse plasma at 20 mg/kg, po; assay type: ADME, organism-based; design: time infinity, dose 20 mg/kg, route oral
in vivo [23] = settings: Swiss outbred, mouse, po, 20 mg/kg

Compound | PPB (Plasma) | Intrinsic clearance (Liver microsomes) | Intrinsic clearance (Liver) | IC50 [8] | EC50 (Plasmodium falciparum [9]) | logD [10] | solubility [11] | IC50 [12] | IC50 [13] | further results
Cc1cc(Nc2cc(F)c(C(F)(F)F)c(F)c2)n2ncnc2n1 | – | – | – | – | – | – | – | – | – | ED50 (Plasmodium falciparum [1]): 19 mg/kg; ED90 (Plasmodium falciparum [1]): 59 mg/kg; AUC (Mus musculus [2]): 3848 µM·min; AUC (Mus musculus [3]): 3173 µM·min; Cmax [4]: 8.5 µM; Cmax [5]: 8.2 µM; Tmax (in vivo [6]): 2 h; Tmax (in vivo [7]): 3.3 h
C[C@H]1[C@H](OC(=O)CCC(=O)O)O[C@@H]2O[C@@]3(C)CC[C@H]4[C@H](C)CC[C@@H]1[C@@]24OO3 [ARTESUNATE] | – | – | – | – | – | – | – | – | – | ED90 (Plasmodium falciparum [1]): 12.7 mg/kg
Cc1cc(Nc2ccc(C(F)(F)F)cc2)n2nc(C3CC3)nc2n1 | 92.8% | < 5 µL/min/mg | 8.6 µL/min/mg | 2600 nM | 150 nM | 3.3 | 38 µM (≈ 12.7 µg/mL) | 140 nM | > 100000 nM | –
CSc1nc2nc(C)cc(Nc3ccc(C(F)(F)F)cc3)n2n1 | 91.8% | 18.7 µL/min/mg | 76.9 µL/min/mg | 4800 nM | 8.4 nM | 3.2 | 19 µM (≈ 6.45 µg/mL) | 36 nM | – | –
COCc1nc2nc(C)cc(Nc3ccc(S(F)(F)(F)(F)F)cc3)n2n1 | 91.7% | 5.6 µL/min/mg | 14.3 µL/min/mg | 3300 nM | 2100 nM | 2.8 | 63 µM (≈ 24.9 µg/mL) | 390 nM | – | –
CCc1nc2nc(C)cc(Nc3ccc(S(F)(F)(F)(F)F)cc3)n2n1 | 96.4% | < 5 µL/min/mg | 16.7 µL/min/mg | 1400 nM | 100 nM | 3.3 | 34 µM (≈ 12.9 µg/mL) | – | > 100000 nM | –
CCC(F)(F)c1nc2nc(C)cc(Nc3ccc(S(F)(F)(F)(F)F)cc3)n2n1 | 97.7% | < 5 µL/min/mg | 6.7 µL/min/mg | 4700 nM | 550 nM | 3.9 | 15 µM (≈ 6.44 µg/mL) | – | > 100000 nM | –
Cc1cc(Nc2ccc(S(F)(F)(F)(F)F)cc2)n2nc(C3CC3)nc2n1 | 97.7% | < 5 µL/min/mg | 12.6 µL/min/mg | 2000 nM | 500 nM | 3.5 | 16 µM (≈ 6.26 µg/mL) | – | > 100000 nM | –
CCC(F)(F)c1nc2nc(C)cc(Nc3ccc(C(F)(F)F)cc3)n2n1 | 93.2% | < 5 µL/min/mg | 6.5 µL/min/mg | 2500 nM | 45 nM | 3.6 | 17 µM (≈ 6.31 µg/mL) | 19 nM | > 100000 nM | half-life [14]: 3.1 h; Cmax [15]: 3.5 µM; AUC(0-inf) [16]: 10.9 µM·h; Time (Mus musculus [17]): 4 h; Tmax (in vivo [18]): 0.5 h
COCc1nc2nc(C)cc(Nc3ccc(C(F)(F)F)cc3)n2n1 | 75.6% | 6.7 µL/min/mg | 13.3 µL/min/mg | 5500 nM | 1000 nM | 2.5 | 150 µM (≈ 50.6 µg/mL) | 410 nM | – | –
CCc1nc2nc(C)cc(Nc3ccc(C(F)(F)F)cc3)n2n1 | 87.5% | < 5 µL/min/mg | 14.4 µL/min/mg | 760 nM | 58 nM | 3 | 39 µM (≈ 12.5 µg/mL) | 87 nM | > 100000 nM | half-life [19]: 8.4 h; Cmax [20]: 12.6 µM; Time (Mus musculus [21]): 5 h; AUC(0-inf) [22]: 27.1 µM·h; Tmax (in vivo [23]): 1 h
CCc1nc2nc(C)cc(Nc3ccc(Cl)cc3)n2n1 | 86.1% | 12.8 µL/min/mg | 63.1 µL/min/mg | 2300 nM | 790 nM | 2.8 | 170 µM (≈ 48.9 µg/mL) | 280 nM | – | –
Cc1cc(Nc2ccc(Cl)cc2)n2nc(C(C)(F)F)nc2n1 | 87.9% | 16 µL/min/mg | 62.8 µL/min/mg | 1700 nM | 50 nM | 3 | 77 µM (≈ 24.9 µg/mL) | 38 nM | > 100000 nM | –
Cc1cc(Nc2ccc(Cl)cc2)n2nc(C(C)C)nc2n1 | 84.9% | 14.1 µL/min/mg | 157.7 µL/min/mg | 2100 nM | 850 nM | 3.2 | 83 µM (≈ 25 µg/mL) | 330 nM | – | –
CCc1nc2nc(C)cc(Nc3cccc(Cl)c3)n2n1 | 86.7% | 78.3 µL/min/mg | 125.4 µL/min/mg | – | 3300 nM | 2.8 | 170 µM (≈ 48.9 µg/mL) | 240 nM | – | –
CCOc1nc2nc(C)cc(Nc3ccc(C(F)(F)F)cc3)n2n1 | 92.4% | 7 µL/min/mg | 14.4 µL/min/mg | 2700 nM | 58 nM | 3.1 | 19 µM (≈ 6.41 µg/mL) | 56 nM | > 100000 nM | half-life [19]: 1.4 h; Cmax [20]: 5.8 µM; Time (Mus musculus [21]): 6 h; AUC(0-inf) [22]: 20.7 µM·h; Tmax (in vivo [23]): 1 h
CCN(CC)CCCC(C)Nc1ccnc2cc(Cl)ccc12 (stereo not drawn) [CHLOROQUINE] | – | – | – | – | – | – | – | – | – | ED50 (Plasmodium falciparum [1]): 3.2 mg/kg; ED90 (Plasmodium falciparum [1]): 4.9 mg/kg
Cc1cc(Nc2cccc(Cl)c2)n2nc(C(C)(F)F)nc2n1 | 88.2% | 44.4 µL/min/mg | 72.2 µL/min/mg | – | 130 nM | 3 | 77 µM (≈ 24.9 µg/mL) | 54 nM | – | –
CSc1nc2nc(C)cc(Nc3ccc(S(F)(F)(F)(F)F)cc3)n2n1 | 97.7% | 22.4 µL/min/mg | 107.5 µL/min/mg | > 10000 nM | 32 nM | 3.5 | 7.8 µM (≈ 3.1 µg/mL) | 30 nM | – | –
Cc1cc(Nc2ccc(C(F)(F)F)cc2)n2nc(CCO)nc2n1 | 67% | < 5 µL/min/mg | 6.9 µL/min/mg | – | 480 nM | 2.2 | 19 µM (≈ 6.41 µg/mL) | 930 nM | – | –
CCOc1nc2nc(C)cc(Nc3ccc(S(F)(F)(F)(F)F)cc3)n2n1 | 97.7% | < 5 µL/min/mg | 11.3 µL/min/mg | 470 nM | 100 nM | 3.4 | 4 µM (≈ 1.58 µg/mL) | 57 nM | > 100000 nM | half-life [19]: 2.7 h; Cmax [20]: 1.1 µM; Time (Mus musculus [21]): 3 h; AUC(0-inf) [22]: 10.1 µM·h; Tmax (in vivo [23]): 1 h
